The species entered for experiment [1] is Gallus gallus. Put plainly: Inhibition of Hen egg white lysozyme fibril formation assessed as shorter fibrils after day 7 by TEM analysis.
The species entered for experiment [2] is Gallus gallus. Put plainly: Inhibition of Hen egg white lysozyme fibril formation by Thioflavin T spectroscopic assay relative to control. Further details: concentration or dose not given beside the values. The following applies: dose or concentration not given here.
The species named for experiment [3] is Gallus gallus. The experiment is described as follows: Inhibition of Hen egg white lysozyme fibril formation by Circular dichroism. Background: Circular dichroism is the unequal absorption of left and right circularly polarised light.
The nature of experiment [4]: Inhibition of HEWL fibril-induced toxicity in human HEK cells assessed as cell viability by MTT assay ( Rvb = 55.2 +/- 7.2%). The format is functional. On the technique in general: Tetrazolium dyes change colour on reduction, which living cells bring about.
For experiment [5], the species on record is Gallus gallus. The experiment is described as follows: Inhibition of Hen egg white lysozyme fibril formation assessed as decrease in conformational transition from alpha-helix to beta-sheet after 7 days by Raman spectroscopic assay. Conditions: time 7.0 day.

Experimental findings from ChEMBL document CHEMBL5113470, “Regioselective pyrrolizidine bis-spirooxindoles as efficient anti-amyloidogenic agents” (2022) are described below.

Structures are written as SMILES. Calls of active or inactive are those of the source. The calls are words filed in the database; no cut-off is given here.

The term inhibition denotes the drop in the measured response relative to a control, in per cent. `COc1ccc(C(=O)[C@@H]2C3CCCN3[C@@]3(C(=O)Nc4ccccc43)[C@@]23C(=O)Nc2ccccc23)cc1` (some centres undefined): the inhibition result in the experiment listed under Gallus gallus [1], in the experiment filed under Gallus gallus [3] and in the experiment filed under Gallus gallus [5] was “Active” throughout. Further, the inhibition in the experiment listed under Gallus gallus [2] was determined as 45.3%. Also, the Activity in experiment [4] is given as 47.7%.

As for `O=C(c1ccccc1)[C@@H]1C2CCCN2[C@@]2(C(=O)Nc3ccccc32)[C@@]12C(=O)Nc1ccccc12` (some centres undefined), the inhibition entry in the experiment filed under Gallus gallus [1], in the experiment listed under Gallus gallus [3] and in the experiment listed under Gallus gallus [5] was “Active” in each case. In the experiment filed under Gallus gallus [2], this compound returned an inhibition of 22.7%. For the same compound, in experiment [4], the Activity amounted to 59.6%.

Turning to `COc1cccc(C(=O)[C@@H]2C3CCCN3[C@@]3(C(=O)Nc4ccccc43)[C@@]23C(=O)Nc2ccccc23)c1` (some centres undefined), the inhibition result in the experiment listed under Gallus gallus [1], in the experiment listed under Gallus gallus [3] and in the experiment filed under Gallus gallus [5] was “Active” throughout. In addition, the inhibition in the experiment listed under Gallus gallus [2] is 20.3%. The Activity in experiment [4] worked out at 64.8%.

For the compound `CC[C@H]1CN2CC[C@@]3(C(=O)Nc4ccccc43)[C@@H]2C[C@@H]1/C(=C\OC)C(=O)OC`, the inhibition in the experiment listed under Gallus gallus [2] was 30.4%.

Compound `CC[C@H]1CN2CC[C@]3(C(=O)Nc4ccccc43)[C@@H]2C[C@@H]1/C(=C\OC)C(=O)OC` [RHYNCHOPHYLLINE] registered an inhibition in the experiment filed under Gallus gallus [2] of 37.6%. Moreover, the Activity in experiment [4] is reported as 77%.

In the experiment listed under Gallus gallus [2], `O=C(O[C@@H]1Cc2c(O)cc(O)cc2O[C@@H]1c1cc(O)c(O)c(O)c1)c1cc(O)c(O)c(O)c1` registered an inhibition of 24.4%.
